Results from ChEMBL document CHEMBL1671754, “Reduced expression of the vca0421 gene of Vibrio cholerae O1 results in innate resistance to ciprofloxacin” (2010).
In brackets after ≈: the same amount, converted by molar mass.

Tests used:
Format in all cases: functional
[1] = Antibacterial activity against Vibrio cholerae O1 569B harboring gyrA and parC genes by 2-fold agar dilution method
[2] = Antibacterial activity against Vibrio cholerae O1 CIP0.25-1 harboring Ser to Ile mutation at 83 position in gyrA and parC genes by 2-fold agar dilution method
[3] = Antibacterial activity against Vibrio cholerae O1 mTn-321 harboring Ser to Ile mutation at 83 position in gyrA and parC genes by 2-fold agar dilution method
Escherichia coli [4] = assay: Antibacterial activity against Escherichia coli JM109 harboring plasmid ptac85
Escherichia coli [5] = assay: Antibacterial activity against Escherichia coli JM109 harboring plasmid ptac85-vca0421

Compound | MIC [1] [µg/mL] | MIC [2] [µg/mL] | MIC [3] [µg/mL] | MIC (Escherichia coli [4]) [µg/mL] | MIC (Escherichia coli [5]) [µg/mL]
O=C(O)c1cn(C2CC2)c2cc(N3CCNCC3)c(F)cc2c1=O [CIPROFLOXACIN] | 0.004 (≈ 0.0121 µM) |  |  |  | 
CCn1cc(C(=O)O)c(=O)c2cc(F)c(N3CCNCC3)nc21 [ENOXACIN] | 0.0313 (≈ 0.0977 µM) | 2 (≈ 6.24 µM) | 0.25 (≈ 0.78 µM) | 4 (≈ 12.5 µM) | 2 (≈ 6.24 µM)
CCn1cc(C(=O)O)c(=O)c2cc(F)c(N3CCNCC3)cc21 [NORFLOXACIN] | 0.0078 (≈ 0.0244 µM) | 2 (≈ 6.26 µM) | 0.125 (≈ 0.391 µM) | 1 (≈ 3.13 µM) | 1 (≈ 3.13 µM)
C[C@@H]1CN(c2c(F)c(N)c3c(=O)c(C(=O)O)cn(C4CC4)c3c2F)C[C@H](C)N1 [SPARFLOXACIN] | 0.004 (≈ 0.0102 µM) | 0.125 (≈ 0.319 µM) | 0.0625 (≈ 0.159 µM) | 0.25 (≈ 0.637 µM) | 0.125 (≈ 0.319 µM)
CN(C)[C@@H]1C(O)=C(C(N)=O)C(=O)[C@@]2(O)C(O)=C3C(=O)c4c(O)cccc4[C@@](C)(O)[C@H]3C[C@@H]12 [TETRACYCLINE] | 0.5 (≈ 1.13 µM) | 4 (≈ 9 µM) |  | 16 (≈ 36 µM) | 8 (≈ 18 µM)
